Measured values: patent US20160368919A1, “NOVEL PYRIDINE PYRAZINONES AS BET-FAMILY BROMODOMAIN INHIBITORS” (Pfizer Inc., priority 2015, published 2016)

Legend:
MM1.S cells = test: MM1.S cell proliferation assay (CellTiter-Glo); assay type: cell-based; details: for IC50: MM1.S, CTG at 96h
Procedure: (§1) MM1.S (dexamethasone sensitive) and OPM-2 cells were purchased from ATCC and maintained in RPMI-1640 medium with 10% fetal bovine serum at 37 degrees, 5% CO2. Cells were seeded at 10,000 cells/well in 100 uL medium. The following day compounds or control vehicle (DMSO) were added at indicated concentrations in 10 ul volume. Compound treated OPM-2 cells and MM1.S cell were analyzed for cell density at 72h and 96h, respectively, using CellTiter-Glo® (CTG) reagent (Promega). The CTG assay measures the amount of ATP present, which indicates the number of viable cells in culture.

C4-2AR-WT cells, AR(+) = test: CRPC cell proliferation assay (CellTiter-Glo), C4-2AR-WT; assay type: cell-based; details: CTG at 96h
Procedure: (§2) Castrate-Resistant Prostate Cancer (CRPC) Cell Proliferation Assay • Cells were seeded into 96-well plates at 2,000-10,000 cells/well in 100 uL medium. Four AR(+) cell lines (LnCaP, C4-2 (parental), C4-2AR-WT and C4-2AR—F876L) and one AR(−) cell line (DU-145) were studied. Compound treated cells were analyzed for cell density at 96h, using CellTiter-Glo® (CTG) reagent (Promega).

[1] = test system: C4-2 (parental) cells, AR(+); test: CRPC cell proliferation assay (CellTiter-Glo), C4-2; assay type: cell-based; details: CTG at 96h
Procedure: as §2

[2] = test system: C4-2AR-F876L cells, AR(+); test: CRPC cell proliferation assay (CellTiter-Glo), C4-2AR-F876L; assay type: cell-based; details: CTG at 96h
Procedure: as §2

DU-145 cells, AR(−) = test: CRPC cell proliferation assay (CellTiter-Glo), DU-145; assay type: cell-based; details: CTG at 96h
Procedure: as §2

BRD4 BD1 = molecular target: T1, BRD4 BD1 (Homo sapiens, UniProt O60885); test: BRD4 BD1 Fluorescence Polarization (FP) competition binding assay; details: BRD4 BD1 40 nM, probe PFI-411FP 2 nM
T1 construct: His-tagged BRD4 BD1 (44-160); made in house
Procedure: Compound binding to BRD4 BD1 was assessed with a FP competition binding assay. […] All assay components were diluted in 50 mM HEPES pH 7.4 containing 0.08% bovine serum albumin (assay buffer). To start the assay, 8 μL of BRD4 BD1 was added to each well of a low volume 384-well black flat bottom microtiter plate (Corning 3820) containing 4 μl of various concentrations of test compound (each plate also contained positive and negative control wells to define the upper and lower limits of the assay signal). After addition of BRD4 BD1, the assay plate was incubated at room temperature (RT, 20° C.). After 15 minutes, 4 μL of PFI-411FP was added to each well and the assay plate was placed in the dark at RT. The final assay concentration (FAC) of PFI-411FP was 2 nM, the FAC of BRD4 BD1 was 40 nM, the FAC of test compound ranged from 120 to 0.0012 μM and the FAC of DMSO was 0.4%. After 60 min, polarization values were measured with an Envision 2103 multilabel reader (Perkin Elmer) using a Cy5 dual enhanced mirror and excitation at 620 nm and emission at 688 nm. The percent (%) effect was calculated for each concentration of test compound and was relative to the amount of polarization signal produced by the positive and negative control wells contained within each assay plate. The concentrations and % effect values for test compounds were plotted versus each other with a proprietary curve fitting program using a four-parameter logistic dose response equation and the concentration of compound required for 50% effect (IC50) was determined. The Ki values of competitive inhibitors were calculated using the equation described by Nikolovska-Coleska et al. (Development and optimization of a binding assay for the XIAP BIR3 domain using fluorescence polarization. Analytical Biochemistry (2004) 332: 261-273).

LnCaP cells, AR(+) = test: CRPC cell proliferation assay (CellTiter-Glo), LnCaP; assay type: cell-based; details: CTG at 96h
Procedure: as §2

[3] = test system: LPS-induced IL-6 production in human whole blood; test: IL-6 human whole blood (HWB) assay, LPS-stimulated, HTRF detection; assay type: cell-based; details: 1 ng/ml LPS, 4 hours
Procedure: Compound effect on IL-6 production was determined using lipopolysaccharide (LPS)-stimulated human whole blood and an HTRF (Homogeneous Time-Resolved Fluorescence) IL-6 detection kit (Human IL6 HTRF Assay CisBio 62IL6PEC). HWB was collected by venous puncture from healthy donors, transferred to a 50 ml polypropylene tube containing sodium heparin (14.3 units per mL of HWB) and then placed in a 37° C. water bath until use. To start the assay, 80 μL of heparin-treated HWB containing 1 ng/ml of LPS (equivalent to LPS ˜EC80 with regard to stimulation of IL-6 production in HWB under these assay conditions) was added to each well of a 384-well, sterile, endotoxin-free, polypropylene plate (Greiner 781281) containing 160 nL of various concentrations of test compound (each plate also contained positive and negative control wells to define the upper and lower limits of the assay signal). The plate was then placed in a thermoshaker incubator set to 370C (Boekel 270440). The final assay concentration (FAC) of test compound ranged from 60 to 0.0006 μM and the FAC of DMSO was 0.2%. After 4 hours, the assay plate was removed from the incubator and centrifuged at 700×g for 10 minutes. 5 μL of the resulting upper plasma layer was removed from each well and diluted 1:2 with 1×Dulbecco's phosphate buffered saline (DPBS). 5 μL of this diluted plasma was then transferred to a white 384-well low volume assay plate (Greiner 784080) containing 5 μL of combined anti-IL-6-Cryptate and anti-IL-6-XL665 detection antibodies (per manufacturer's protocol). The plate was then sealed with a Top Seal (Perkin Elmer 6005185) and incubated at room temperature (RT, 20° C.). After 16-18 hrs (overnight), the HTRF assay signal was read on an Envision 2103 plate reader using a Lance Delfia Dual/Bias mirror TRF laser excitation and emission was measured at 665 nm and 615 nm respectively. The percent (%) effect was calculated for each concentration of test compound and was relative to the amount of HTRF signal produced by the positive and negative control wells contained within each assay plate. The concentrations and % effect values for test compounds were plotted versus each other with a proprietary curve fitting program using a four-parameter logistic dose response equation and the concentration of compound required for 50% effect (IC50) was determined.

OPM-2 cells = test: OPM-2 cell proliferation assay (CellTiter-Glo); assay type: cell-based; details: for IC50: OPM-2, CTG at 72h
Procedure: as §1

Row | SMILES | IC50 (BRD4 BD1) [nM] | IC50 [3] [nM] | further results
1 | CC[C@H](COC)n1c(=O)c(NCCC(=O)O)nc2ccc(-c3c(C)noc3C)nc21 [Example 47, N-{6-(3,5-dimethyl-1,2-oxazol-4-yl)-4-[(2R)-1-methoxybutan-2-yl]-3-oxo-3,4-dihydropyrido[2,3-b]pyrazin-2-yl}-beta-alanine] | 194 | 6160 | IC50 (MM1.S cells; Homo sapiens): 39 nM; inhibition of proliferation of MM1.S cells (MM1.S cells; dose dependent manner, FIG. 1.A): inhibited proliferation; IC50 (C4-2AR-WT cells, AR(+)): > 5000 nM; Max % Inh (C4-2AR-WT cells, AR(+)): 82%; IC50 [1]: > 5000 nM; Max % Inh [1]: 80%; IC50 [2]: > 5000 nM; Max % Inh [2]: 81%; Max % Inh (DU-145 cells, AR(−)): 43%; IC50 (DU-145 cells, AR(−); Homo sapiens): > 5000 nM; Max % Inh (LnCaP cells, AR(+)): 62%; IC50 (LnCaP cells, AR(+); Homo sapiens): > 5000 nM; IC50 (OPM-2 cells; Homo sapiens): 160 nM; inhibition of proliferation of OPM-2 cells (OPM-2 cells; dose dependent manner, FIG. 1.B): inhibited proliferation
2 | Cc1sc2c(c1C)C(c1ccc(Cl)cc1)=N[C@@H](CC(=O)OC(C)(C)C)c1nnc(C)n1-2 [JQ1(−)] | – | – | IC50 (MM1.S cells): > 1000 nM; IC50 (OPM-2 cells): > 1000 nM
3 | CCCC(=O)N(C)c1ccc2nc(NCCC(=O)O)c(=O)n([C@@H](CC)c3ccccc3)c2n1 [Example 7, N-{6-[butanoyl(methyl)amino]-3-oxo-4-[(1S)-1-phenylpropyl]-3,4-dihydropyrido[2,3-b]pyrazin-2-yl}-beta-alanine] | 130 | 2390 | –
4 | CC[C@@H](c1ccccc1)n1c(=O)c(NCCC(=O)NC)nc2ccc(N(C)C(=O)C3CCO3)nc21 (stereo partly drawn) [Example 28, N-methyl-N-(2-{[3-(methylamino)-3-oxopropyl]amino}-3-oxo-4-[(1S)-1-phenylpropyl]-3,4-dihydropyrido[2,3-b]pyrazin-6-yl)oxetane-2-carboxamide] | 149 | 366 | –
5 | CCC(=O)N(C)c1ccc2nc(NCCC(=O)O)c(=O)n(C3(c4ccccc4)CCC3)c2n1 [Example 12, N-{6-[methyl(propanol)amino]-3-oxo-4-(1-phenylcyclobutyl)-3,4-dihydropyrido[2,3-b]pyrazin-2-yl}-beta-alanine] | 805 | 18100 | –
6 | CCC(=O)N(C)c1ccc2nc(NCCC(=O)O)c(=O)n([C@@H](CC)c3ccccn3)c2n1 [Example 11, N-{6-[methyl(propanoyl)amino]-3-oxo-4-[(1S)-1-(pyridin-2-yl)propyl]-3,4-dihydropyrido[2,3-b]pyrazin-2-yl}-beta-alanine] | 251 | 2680 | –
7 | CCC[C@@H](c1ccccc1)n1c(=O)c(NCCC(=O)O)nc2ccc(-c3c(C)noc3C)nc21 [Example 52, N-{6-(3,5-dimethyl-1,2-oxazol-4-yl)-3-oxo-4-[(1S)-1-phenylbutyl]-3,4-dihydropyrido[2,3-b]pyrazin-2-yl}-beta-alanine] | 62.7 | 1090 | –
8 | CC[C@@H](c1ccccc1)n1c(=O)c(NCCC(=O)O)nc2ccc(N(C)C(=O)C3CCC3)nc21 [Example 8] | 122 | 1800 | –
9 | CCC(=O)N(C)c1ccc2nc(NCCC(=O)O)c(=O)n([C@H](c3ccccn3)C(C)C)c2n1 [Example 23, N-{6-[methyl(propanol)amino]-4-[(1S)-2-methyl-1-(pyridin-2-yl)propyl]-3-oxo-3,4-dihydropyrido[2,3-b]pyrazin-2-yl}-beta-alanine] | 159 | 2300 | –
10 | CCC(=O)N(C)c1ccc2nc(NCCC(=O)NC)c(=O)n([C@@H](CC)c3ccccn3)c2n1 [Example 33, N-methyl-N^3-{6-[methyl(propanoyl)amino]-3-oxo-4-[(1S)-1-(pyridin-2-yl)propyl]-3,4-dihydropyrido[2,3-b]pyrazin-2-yl}-beta-alaninamide] | 363 | 452 | –
11 | CCC(=O)N(C)c1ccc2nc(NCC(=O)NC)c(=O)n([C@H](c3ccccn3)C(C)C)c2n1 [Example 30, N-methyl-N-(2-{[2-(methylamino)-2-oxoethyl]amino}-4-[(1S)-2-methyl-1-(pyridin-2-yl)propyl]-3-oxo-3,4-dihydropyrido[2,3-b]pyrazin-6-yl)propanamide] | 348 | 722 | –
12 | CC[C@@H](c1ccccc1)n1c(=O)c(NCCC(=O)O)nc2ccc(N(C)C(=O)NC)nc21 [Example 9, N-{6-[methyl(methylcarbamoyl)amino]-3-oxo-4-[(1S)-1-phenylpropyl]-3,4-dihydropyrido[2,3-b]pyrazin-2-yl}-beta-alanine] | 150 | 3830 | –
13 | CC[C@@H](c1ccccc1)n1c(=O)c(NCCC(=O)O)nc2ccc(N(C)C(=O)C(C)C)nc21 [Example 6, N-{6-[methyl(2-methylpropanoyl)amino]-3-oxo-4-[(1S)-1-phenylpropyl]-3,4-dihydropyrido[2,3-b]pyrazin-2-yl}-beta-alanine] | 155 | 1420 | –
14 | Cc1noc(C)c1-c1ccc2nc(NCC(=O)O)c(=O)n([C@@H](C)c3ccccc3)c2n1 [Example 41, N-{6-(3,5-dimethyl-1,2-oxazol-4-yl)-3-oxo-4-[(1S)-1-phenylethyl]-3,4-dihydropyrido[2,3-b]pyrazin-2-yl}glycine] | 585 | 35500 | –
